Calls of active or inactive are those of the source.
How the values were obtained:
Cytochrome P450 2C19 = Cytochrome P450 2C19 (Homo sapiens, UniProt P33261); test: Cytochrome panel assay with activity outcomes. Panel member name: p450-cyp2c19 Compounds with AC50 equal or less than 10 uM are considered active; assay type: functional
[1] = molecular target: T1, Heat shock factor protein 1 (Mus musculus, UniProt P38532); test: enhancement of HSF1-driven luciferase signal – cell-based, NIH3T3, luminescence, dose retest, confirmation (AID 435004); assay type: functional;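 also: stress induced by proteasome inhibitor MG132 added 30 min after compound; luciferase reporter driven by HSF1 response element in NIH3T3 cells; actives raise luminescence as potentiators of the MG132 stress response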
T1 sequence (P38532 whole entry): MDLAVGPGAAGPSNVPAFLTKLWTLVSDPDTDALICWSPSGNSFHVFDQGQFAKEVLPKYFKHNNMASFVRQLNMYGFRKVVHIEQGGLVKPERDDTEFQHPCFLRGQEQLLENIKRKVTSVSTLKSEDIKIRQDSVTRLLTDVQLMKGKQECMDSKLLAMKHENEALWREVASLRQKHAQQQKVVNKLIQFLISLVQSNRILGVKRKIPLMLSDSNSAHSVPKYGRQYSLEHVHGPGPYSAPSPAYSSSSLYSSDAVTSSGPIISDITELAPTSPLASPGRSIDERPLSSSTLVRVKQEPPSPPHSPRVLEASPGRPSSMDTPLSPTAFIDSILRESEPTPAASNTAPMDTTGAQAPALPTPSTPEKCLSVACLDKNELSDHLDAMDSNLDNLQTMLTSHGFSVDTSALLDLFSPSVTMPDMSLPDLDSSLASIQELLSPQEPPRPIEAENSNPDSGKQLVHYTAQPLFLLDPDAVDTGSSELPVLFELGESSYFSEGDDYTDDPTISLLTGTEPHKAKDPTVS

[2] = molecular target: T2, Zinc finger protein mex-5 (Caenorhabditis elegans, UniProt Q9XUB2); test: potency of MEX-5 RNA-binding blockers – biochemical, C. elegans, fluorescence polarization, dose response (AID 1960)
T2 sequence (Q9XUB2 whole entry): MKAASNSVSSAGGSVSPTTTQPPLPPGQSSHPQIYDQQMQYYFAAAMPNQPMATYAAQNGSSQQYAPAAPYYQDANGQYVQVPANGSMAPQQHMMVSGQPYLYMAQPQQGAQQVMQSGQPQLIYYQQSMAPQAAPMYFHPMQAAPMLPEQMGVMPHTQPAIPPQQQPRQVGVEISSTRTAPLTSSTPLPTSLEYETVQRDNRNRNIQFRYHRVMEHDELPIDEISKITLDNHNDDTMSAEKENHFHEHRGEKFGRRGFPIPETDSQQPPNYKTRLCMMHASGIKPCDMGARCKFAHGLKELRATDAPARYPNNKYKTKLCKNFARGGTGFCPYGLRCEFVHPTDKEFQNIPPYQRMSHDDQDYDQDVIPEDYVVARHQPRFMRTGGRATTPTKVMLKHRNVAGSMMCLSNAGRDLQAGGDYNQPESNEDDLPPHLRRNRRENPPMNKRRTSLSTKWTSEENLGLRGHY

[3] = molecular target: T3, RNA-binding protein pos-1 (Caenorhabditis elegans, UniProt G5EF15); test: disruptors of C. elegans POS-1 RNA interaction – biochemical, fluorescence polarization, dose response (AID 1964);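 also: purified POS-1 fused to maltose binding protein made in E. coli; potency of compounds blocking POS-1 binding to fluorescent RNA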
T3 sequence (G5EF15 whole entry): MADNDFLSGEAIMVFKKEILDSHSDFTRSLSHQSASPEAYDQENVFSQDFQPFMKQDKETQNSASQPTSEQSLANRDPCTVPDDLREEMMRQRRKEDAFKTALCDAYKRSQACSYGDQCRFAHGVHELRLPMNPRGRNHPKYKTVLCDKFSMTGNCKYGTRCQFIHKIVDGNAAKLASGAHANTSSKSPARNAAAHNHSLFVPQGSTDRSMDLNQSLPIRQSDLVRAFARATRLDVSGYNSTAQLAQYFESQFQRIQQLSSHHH

Cytochrome P450 2C9 = Cytochrome P450 2C9 (Homo sapiens, UniProt P11712)
Cytochrome P450 3A4 = Cytochrome P450 3A4 (Homo sapiens, UniProt P08684);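 also: CYP3A4 tested as one member of a cytochrome P450 panel screen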
Cytochrome P450 1A2 = molecular target: T4, Cytochrome P450 1A2 (Homo sapiens, UniProt P05177);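 also: PubChem cytochrome P450 panel assay, CYP1A2 panel member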
T4 sequence (P05177 whole entry): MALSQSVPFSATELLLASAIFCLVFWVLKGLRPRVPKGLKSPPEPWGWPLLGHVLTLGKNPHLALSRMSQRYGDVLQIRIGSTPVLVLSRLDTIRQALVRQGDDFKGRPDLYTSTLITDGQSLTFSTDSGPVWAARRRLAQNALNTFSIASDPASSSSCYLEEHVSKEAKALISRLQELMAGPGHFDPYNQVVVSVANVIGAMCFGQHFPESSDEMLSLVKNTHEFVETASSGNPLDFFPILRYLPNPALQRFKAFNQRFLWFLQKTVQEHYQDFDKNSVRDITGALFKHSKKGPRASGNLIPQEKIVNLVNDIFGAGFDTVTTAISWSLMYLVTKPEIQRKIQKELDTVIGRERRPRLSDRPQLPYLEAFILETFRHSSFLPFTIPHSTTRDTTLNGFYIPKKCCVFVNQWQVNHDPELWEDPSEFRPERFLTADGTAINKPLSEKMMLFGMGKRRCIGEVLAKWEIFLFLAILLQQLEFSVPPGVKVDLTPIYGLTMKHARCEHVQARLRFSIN

[4] = molecular target: T5, Corticotropin-releasing factor receptor 2/Corticotropin-releasing factor-binding protein (Homo sapiens, UniProt P24387+Q13324); test: activators of CRF receptor 2 with binding protein – uHTS hits, confirmation (AID 602473); assay type: functional; conditions: read-out: EC50_Mean
T5 sequence (Q13324 whole entry): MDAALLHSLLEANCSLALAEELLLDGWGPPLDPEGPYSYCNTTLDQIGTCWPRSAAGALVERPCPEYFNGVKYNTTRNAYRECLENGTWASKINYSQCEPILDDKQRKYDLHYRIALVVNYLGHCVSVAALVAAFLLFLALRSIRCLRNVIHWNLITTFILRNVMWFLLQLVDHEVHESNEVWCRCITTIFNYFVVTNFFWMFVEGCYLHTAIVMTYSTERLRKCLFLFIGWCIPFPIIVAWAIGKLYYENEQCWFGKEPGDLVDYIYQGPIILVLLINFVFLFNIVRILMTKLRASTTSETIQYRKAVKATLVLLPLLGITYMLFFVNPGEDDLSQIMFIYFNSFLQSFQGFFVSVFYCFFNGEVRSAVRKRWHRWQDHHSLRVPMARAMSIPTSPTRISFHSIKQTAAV
T5 sequence (P24387 whole entry): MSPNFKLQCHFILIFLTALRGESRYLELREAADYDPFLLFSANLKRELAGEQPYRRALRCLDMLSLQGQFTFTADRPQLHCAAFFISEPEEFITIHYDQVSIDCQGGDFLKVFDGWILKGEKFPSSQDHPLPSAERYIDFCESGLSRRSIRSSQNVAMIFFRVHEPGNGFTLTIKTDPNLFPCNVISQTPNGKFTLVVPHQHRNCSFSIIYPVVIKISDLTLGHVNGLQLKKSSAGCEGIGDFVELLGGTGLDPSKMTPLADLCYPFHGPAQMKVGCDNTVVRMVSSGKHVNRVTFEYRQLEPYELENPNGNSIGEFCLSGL

Sequence of Cytochrome P450 3A4 (P08684 whole entry): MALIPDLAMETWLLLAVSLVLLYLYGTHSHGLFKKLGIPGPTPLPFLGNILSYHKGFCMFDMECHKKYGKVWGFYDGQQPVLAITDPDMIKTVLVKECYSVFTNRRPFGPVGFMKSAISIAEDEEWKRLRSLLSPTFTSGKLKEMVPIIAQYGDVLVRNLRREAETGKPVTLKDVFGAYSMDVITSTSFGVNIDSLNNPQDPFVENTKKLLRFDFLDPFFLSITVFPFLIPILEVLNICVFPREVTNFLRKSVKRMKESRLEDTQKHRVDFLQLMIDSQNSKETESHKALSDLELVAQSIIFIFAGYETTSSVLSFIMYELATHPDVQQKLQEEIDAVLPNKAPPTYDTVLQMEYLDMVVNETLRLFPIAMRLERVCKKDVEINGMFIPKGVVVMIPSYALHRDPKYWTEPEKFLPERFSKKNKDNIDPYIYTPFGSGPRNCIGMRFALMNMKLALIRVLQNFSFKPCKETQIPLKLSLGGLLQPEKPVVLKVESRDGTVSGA
Sequence of Cytochrome P450 2C9 (P11712 whole entry): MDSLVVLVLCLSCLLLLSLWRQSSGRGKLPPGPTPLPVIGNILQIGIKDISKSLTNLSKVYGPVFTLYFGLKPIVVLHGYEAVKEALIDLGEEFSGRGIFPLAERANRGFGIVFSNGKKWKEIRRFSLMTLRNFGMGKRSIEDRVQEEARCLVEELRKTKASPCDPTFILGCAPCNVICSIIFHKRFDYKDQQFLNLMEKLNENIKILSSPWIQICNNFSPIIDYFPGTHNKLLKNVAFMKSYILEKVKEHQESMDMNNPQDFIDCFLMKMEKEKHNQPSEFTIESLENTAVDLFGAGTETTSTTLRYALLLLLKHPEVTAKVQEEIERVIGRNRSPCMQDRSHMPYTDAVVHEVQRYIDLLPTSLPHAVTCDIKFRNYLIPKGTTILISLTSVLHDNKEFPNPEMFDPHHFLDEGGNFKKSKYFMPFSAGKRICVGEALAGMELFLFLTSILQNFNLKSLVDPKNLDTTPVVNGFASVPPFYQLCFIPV
Sequence of Cytochrome P450 2C19 (P33261 whole entry): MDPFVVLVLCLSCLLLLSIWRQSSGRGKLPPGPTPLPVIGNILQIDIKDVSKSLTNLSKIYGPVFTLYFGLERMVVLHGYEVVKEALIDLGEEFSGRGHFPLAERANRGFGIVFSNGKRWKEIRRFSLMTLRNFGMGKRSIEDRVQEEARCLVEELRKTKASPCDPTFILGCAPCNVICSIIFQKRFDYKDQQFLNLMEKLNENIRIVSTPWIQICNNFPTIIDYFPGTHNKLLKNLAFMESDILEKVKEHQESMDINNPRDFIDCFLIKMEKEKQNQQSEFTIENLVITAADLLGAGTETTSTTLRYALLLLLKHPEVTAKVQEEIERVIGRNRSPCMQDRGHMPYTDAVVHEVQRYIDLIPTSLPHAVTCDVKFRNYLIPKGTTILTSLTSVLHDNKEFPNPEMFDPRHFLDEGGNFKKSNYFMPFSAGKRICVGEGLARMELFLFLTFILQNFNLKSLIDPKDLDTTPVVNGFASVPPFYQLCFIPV

## O=C(c1cccs1)N1CCN(C(=O)C(c2ccccc2)c2ccccc2)CC1
Cytochrome P450 2C19; read-out: AC50
  AC50: 25.1 µM (inconclusive)

## COc1ncc2nc(-c3cn(C)c4ccccc34)c(=O)n(C)c2n1
Cytochrome P450 2C19
  AC50: inconclusive

## CNc1nc(Nc2ccc(C)c(Cl)c2)nc(N)c1[N+](=O)[O-]
[1]
  EC50: 82.2 µM (active)

## O=C(NCCn1cccn1)C1CCC(=O)N(CCc2cccc(F)c2)C1 (stereo not given)
[1]
  EC50: > 260 µM (inactive)

## CCOC(=O)Cn1nnc(-c2cccc(OC)c2)n1
[1]
  EC50: > 260 µM (inactive)

## CC(C)CNC(=O)C1Nc2ccc(OC(F)(F)F)cc2C2C=CCC12 (stereo not given)
[2]
  EC50: > 300 µM (not active)
[3]
  EC50: > 300 µM (not active)

## CCn1c(SCC(=O)c2ccc(Cl)cc2)nnc1-c1ccoc1C
[1]
  EC50: > 260 µM (inactive)

## Cc1cccn2c(=O)c3c(nc12)N1CCC(Cc2ccccc2)CC1C1(C3)C(=O)N(C)C(=O)N(C)C1=O (stereo not given)
[1]
  EC50: > 260 µM (inactive)

## Cc1c(Cl)cccc1NC(=O)CCC(=O)NNC(=O)c1ccco1
Cytochrome P450 2C19
  AC50: inconclusive

## CCC[C@@H]1C[C@@]1(CCC)C(NC(=O)c1ccccc1)c1cccc(Cl)c1 (stereo not given in full)
Cytochrome P450 2C9
  AC50: 20 µM (inconclusive)
Cytochrome P450 3A4
  AC50: 3.98 µM (inconclusive)

## O=C(CSc1ccc(Cl)cc1)Nc1ccc(N2CCN(C(=O)c3ccc(Cl)cc3)CC2)cc1
Cytochrome P450 2C19; read-out: AC50
  AC50: 14.1 µM (inconclusive)

## Cc1cccn2c(=O)c3cc(S(=O)(=O)c4ccccc4)c(=N)n(CC4CCCO4)c3nc12 (stereo not given)
[2]
  EC50: > 300 µM (inconclusive)
[3]
  EC50: 5.7 µM (inconclusive)

## COC(=O)N1CCC2(CCCN(C(=O)Nc3cccc(F)c3)C2)CC1
Cytochrome P450 3A4
  AC50: 25.1 µM (inconclusive)

## COc1ccc(CNC(=O)C(c2ccc(C)o2)N(C(=O)c2csnn2)c2ccc(C(C)C)cc2)cc1 (stereo not given)
[1]
  EC50: 73.7 µM (active)

## C/C(CCC(=O)OC[C@@H]1O[C@H](C#Cc2ccccc2)C=C[C@@H]1Oc1ccc(C)cc1)=N/OC[C@@H](O)COCc1ccco1
Cytochrome P450 2C9
  AC50: 1.58 µM (inconclusive)

## NCCSc1nc(-c2ccccc2)c(-c2ccccc2)o1
Cytochrome P450 1A2
  AC50: 3.16 µM (inconclusive)
Cytochrome P450 2C19; read-out: AC50
  AC50: 0.00794 µM (inconclusive)

## COc1ccc(/C=N/n2cncn2)cc1COc1ccc(NC(C)=O)cc1
[1]
  EC50: > 260 µM (inactive)

## O=C(c1ccco1)N1CCc2ccccc21
[2]
  EC50: 169 µM (active)
[3]
  EC50: > 300 µM (not active)

## CN1CCN(c2ncc3nc(-c4cn(C)c5ccccc45)c(=O)n(C)c3n2)CC1
Cytochrome P450 2C9
  AC50: 12.6 µM (inconclusive)
Cytochrome P450 3A4
  AC50: 25.1 µM (inconclusive)
Cytochrome P450 1A2
  AC50: 31.6 µM (inconclusive)

## CCOC(=O)c1c(/N=C/C2C(=O)NC(=S)NC2=O)sc(C)c1C
[2]
  EC50: > 300 µM (inconclusive)
[3]
  EC50: > 300 µM (not active)

## Cc1occc1C(=O)NNS(=O)(=O)c1ccc([N+](=O)[O-])cc1
[1]
  EC50: > 260 µM (inactive)

## O=C(c1cccc(F)c1)N1CCC2(CCCN(Cc3ccncc3)C2)CC1
Cytochrome P450 3A4
  AC50: 3.98 µM (inconclusive)
Cytochrome P450 1A2
  AC50: 15.8 µM (inconclusive)

## CCOC(=O)N1CCN(CC(=O)c2ccc(O)cc2O)CC1
[2]
  EC50: 40.7 µM (active)
[3]
  EC50: 157 µM (active)

## O=C(NCc1cccc(F)c1)c1cccc2c1C(=O)c1ccc(N3CCCC3)cc1S2(=O)=O
[4]
  EC50: 6.84 µM (active)

## CC(C)(C)c1ccc(-c2nnc(SCc3ccc(Cl)cc3)n2-c2cccc(C(F)(F)F)c2)cc1
Cytochrome P450 2C9
  AC50: 3.16 µM (inconclusive)
Cytochrome P450 3A4
  AC50: 3.16 µM (inconclusive)
Cytochrome P450 1A2
  AC50: 3.16 µM (inconclusive)

## O=C(c1cc(C(F)(F)F)cc(C(F)(F)F)c1)N1CCC2(CCCN(Cc3nccs3)C2)CC1
Cytochrome P450 2C19
  AC50: inconclusive

## O=C(O)c1ccccc1N(c1ccccc1)c1ccccc1
[2]
  EC50: > 300 µM (not active)
[3]
  EC50: > 300 µM (not active)

## O=S(=O)(c1ccccc1)N1CCCC1c1nc2ccccc2s1 (stereo not given)
Cytochrome P450 3A4
  AC50: 20 µM (inconclusive)
Cytochrome P450 1A2
  AC50: 25.1 µM (inconclusive)

## C[C@@]1(C(NC(=O)c2cccs2)c2ccc(-c3ccccc3)cc2)C[C@H]1C1CCCCC1 (stereo not given in full)
Cytochrome P450 3A4
  AC50: 20 µM (inconclusive)

## COc1ccc(C(OCCN2CCC[C@@H](C(=O)O)C2)(c2ccc(OC)cc2)c2ccc(OC)cc2)cc1
Cytochrome P450 3A4
  AC50: 31.6 µM (inconclusive)
Cytochrome P450 1A2
  AC50: 31.6 µM (inconclusive)

## COC(=O)[C@H]1C[C@@H]1[C@H](NC(=O)c1cc(C)nn1C)c1ccccc1
Cytochrome P450 2C19; read-out: AC50
  AC50: 15.8 µM (inconclusive)

## COc1ccccc1N1CCN(C2CCCCC2NS(=O)(=O)c2ccc(Cl)cc2)CC1 (stereo not given)
[4]
  EC50: 4.3 µM (active)

## Cc1ccc(S(=O)(=O)n2c(=O)oc3ccccc32)cc1
[1]
  EC50: > 260 µM (inactive)

## CCc1ccc2c(-c3cccc(Cl)c3)nc(=O)n(CC)c2n1
Cytochrome P450 2C9
  AC50: 39.8 µM (inconclusive)
Cytochrome P450 3A4
  AC50: 31.6 µM (inconclusive)

## O=C(O)CSc1nnnn1-c1ccc2c(c1)OCCO2
[1]
  EC50: > 260 µM (inactive)

## COc1cc(OC)c2c(c1Cl)O[C@@]1(C2=O)[C@H](C)CC(=O)C[C@@H]1OC
Cytochrome P450 3A4
  AC50: 12.6 µM (inconclusive)
Cytochrome P450 1A2
  AC50: 15.8 µM (inconclusive)

## O=C1NC(=O)N(Cc2ccccc2)C(=O)/C1=C/NNC(=O)c1ccncc1
[2]
  EC50: 93.9 µM (active)
[3]
  EC50: 43.9 µM (active)

## CN(C)c1ccc(/C=N/NC2=NS(=O)(=O)c3ccccc32)cc1
[2]
  EC50: > 300 µM (inconclusive)
[3]
  EC50: 39.3 µM (active)

## O=C1NC(=O)C(=Cc2ccc(-c3ccc(S(=O)(=O)N4CCOCC4)cc3)o2)C(=O)N1
[2]
  EC50: 34.7 µM (active)
[3]
  EC50: 40.5 µM (active)

## Nc1nc(N)c(/N=N\c2ccc(C(=O)O)c(O)c2)c(N)n1
Cytochrome P450 2C19; read-out: AC50
  AC50: 0.631 µM (inconclusive)

## Cc1cc(C)n(CCCNCC(O)c2ccccc2)n1 (stereo not given)
Cytochrome P450 3A4
  AC50: 35.5 µM (inconclusive)
Cytochrome P450 1A2
  AC50: 39.8 µM (inconclusive)

## CCOC(=O)C1=C(C)NC(=S)NC1c1cccc(O)c1 (stereo not given) [MONASTROL]
Cytochrome P450 2C9
  AC50: 20 µM (inconclusive)
Cytochrome P450 1A2
  AC50: 39.8 µM (inconclusive)

## CCCCn1cnc2c(oc3nc4c(cc32)CCCC4)c1=O
[1]
  EC50: > 260 µM (inactive)

From ChEMBL document CHEMBL1201862, “PubChem BioAssay data set” (2004)
